Holding throughout (assay): DTP human tumour cell line panel, 48 h
For test [1], the system named is SK-OV-3 ovarian.
Test [2] has as its system SW-620 colon.
For test [3], the system named is SF-539 CNS.
In test [4] the test system is UO-31 renal.
For test [5], the system named is OVCAR-4 ovarian.
For test [6], the system named is DU-145 prostate.
The subject of test [7] is RXF 393 renal.
Test [8] concerns UACC-257 melanoma.
Test [9] concerns K-562 leukemia.

Structures are written as SMILES.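 Five concentrations, 48 hours, 96-well plates. Here, GI50 denotes the concentration required for 50% inhibition of growth. The concentration for full growth arrest is given as TGI.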

Take `CC(C)(/C=N/O)/[N+]([O-])=C/c1ccccc1`: the TGI in test [1], in test [2], in [3], in test [4], in [5] and in test [6] was over 100 µM in each case. Moreover, the TGI in test [7] and in test [8] was over 100 µM each time.

As for `O=C1CCc2ccccc2O1`, the TGI in test [1], in test [2], in test [4], in test [5], in [6] and in test [9] was over 100 µM in each case. For the same compound, the TGI in test [7] and in test [8] was over 100 µM in each case.

On to `CCC1OC2C(CC=C(C)C)=C3OC(C)(O)C(C)(CC)C(=O)C3=C3OC(=O)C=C1C32` (centres undefined), for which the TGI in test [1] is over 100 µM; in [2], over 100 µM; in test [3], 23.1 µM; in test [4] it was 69.6 µM; in test [5], over 100 µM; in test [6], over 100 µM. In addition, the figures for the TGI in test [9] and in test [8] were 86.8 µM and 96.2 µM, respectively.

`CC1(C)OC2[C@@H](CO[C@@]3([C@H]4OC(C)(C)O[C@@H]4CO)OC(C)(C)O[C@@H]23)O1` (some centres undefined): the TGI in test [1], in [2], in test [4], in [5], in [6] and in test [9] was over 100 µM in each case. Further, the TGI in test [7] is over 100 µM.

Consider `COc1ccc(N2C(=O)C(=O)C3(CCCCC3)C2=O)c(OC)c1OC`, for which the TGI in [1], in [2], in test [3], in [4], in [5] and in test [6] was over 100 µM each time. Besides, the TGI in test [7] and in test [8] was over 100 µM each time.

Take `CCN(CCN(CC)C(=O)NC)C(=O)NC`: the TGI in test [1], in test [2], in [4], in test [6], in test [9] and in test [7] was over 100 µM in each case. The compound also registered a TGI in test [8] of over 100 µM.

In the case of `CC(C)(CO)NC(=O)c1cccs1`, the TGI in test [1], in test [2], in test [4], in test [5], in [6] and in test [9] was over 100 µM throughout. The same compound registered a TGI in test [8] of over 100 µM.

Take `COC1=CC(c2ccc[nH]2)=N/C1=C\c1[nH]c(C)c(C)c1CCC(=O)OCc1ccccc1`: the GI50 in [1] was 1.79 µM; in test [2], 0.322 µM; in test [4] it was 0.209 µM; in test [5], 0.246 µM; in [6], 0.446 µM; in test [7], 0.496 µM. Besides, the GI50 in [8] was 1.27 µM. Besides, the TGI came to 5.16 µM in test [1]; 1.62 µM in test [2]; 0.459 µM in [4]; 4.43 µM in test [5]; 6.82 µM in test [6]; 1.83 µM in [7]. In addition, the TGI in test [8] worked out at 2.97 µM.

`Cc1cc(N)c2cc(NC(=O)Nc3ccc4nc(C)cc(N)c4c3)ccc2n1`: the TGI in [1], in test [2], in test [4], in [5], in test [6] and in [9] was over 100 µM throughout. The TGI in [8] was over 100 µM.

In the case of `CP(=O)(O)C(N)c1ccccc1` (centres undefined), the TGI in test [1], in [2], in test [4], in test [5], in test [6] and in test [9] was over 100 µM throughout. The compound also gave a TGI in [8] of over 100 µM.

Consider `COc1cc(C(=O)N(C(=O)N2CCCCC2)c2ccccc2)cc(OC)c1OC`, for which the TGI in [1], in [2], in test [3], in test [4], in test [6] and in [9] was over 100 µM throughout. In test [8], the TGI is over 100 µM.

Take `COc1ccccc1[C@@H]1CCC2CC[C@@H](c3ccccc3OC)[N+]21Cc1ccccc1` (some centres undefined): the TGI in test [1] worked out at 11.7 µM; in [2], 22.5 µM; in [4], 10.6 µM; in test [5] it was 16.1 µM; in test [6], 13.7 µM; in test [9], 12.7 µM. Also, the TGI in test [7] turned out to be 8.53 µM; in test [8], 14.1 µM.

Turning to `COc1ccc(Oc2nc3c(N)cc(C(F)(F)F)cc3nc2-c2ccccc2)cc1`, the TGI in test [1] is 43.7 µM; in test [2], over 100 µM; in [3] it was over 100 µM; in test [4], over 100 µM; in [5] it was over 100 µM; in test [9], over 100 µM. Further, the values for the TGI in [7] and in test [8] were 24.9 µM and over 100 µM, respectively.

As for `COC(=O)C1CCCN1C(=O)OC(C)(C)C` (centres undefined), the TGI in test [1], in test [2], in [4], in test [5], in [6] and in test [9] was over 100 µM throughout. Besides, the TGI in test [7] and in [8] was over 100 µM throughout.

Take `CCc1n[nH]c(=O)n1N=C(c1ccccc1)c1ccccc1`: the TGI in test [2], in [4], in [5], in test [6], in [9] and in [7] was over 100 µM throughout. The TGI in test [8] is over 100 µM.

Take `O=c1cc(NNc2cccc(F)c2)[nH]c(=S)[nH]1`: the TGI in [2], in test [3], in test [4], in [5], in test [6] and in test [9] was over 100 µM in each case. This compound also had a TGI in test [8] of over 100 µM.

With `CCOC(=O)C1=C(C)N(c2ccc(Cl)cc2)C2(O)C=CC(Nc3ccc(Cl)cc3)=C3C(=O)N(c4ccccc4)C(=O)C312` (centres undefined), the TGI came to 24.9 µM in test [1]; 14.6 µM in [2]; 18.3 µM in test [3]; 20.3 µM in [4]; 15.1 µM in test [5]; 17.8 µM in test [6]. Besides, the TGI in [9] was over 100 µM; in [8], 39.2 µM.

Values taken from PubChem BioAssay (NCI).
